We go through 3 molecules from patent US6713265B1 (Synaptic Pharmaceutical Corporation, priority 1999, dated 2004).

Structures are written as SMILES. Where two headings read alike, the source gives them in different places. Bounds are passed on as bounds.

Test [1] has as its target T1, rat Y5 receptor (Rattus norvegicus, UniProt Q63634).
T1 construct: expressed in transfected cells; host or cells: COS-7 (transient, DEAE-dextran)
Put plainly: Radioligand binding to membranes of cells expressing cloned rat Y5 receptor. The note with it: BIBP 3226 at cloned rat Y-type receptors.

Test [2] addresses T2, human Y4 receptor (Homo sapiens, UniProt P50391).
T2 construct: expressed in transfected cells; host or cells: COS-7 (transient)
As to the kind of experiment: ^125I-PYY binding to membranes, cloned human Y4 receptor.

In test [3] the target is T3, human Y2 receptor (Homo sapiens, UniProt P49146).
T3 construct: expressed in transfected cells; host or cells: COS-7 (transient)
T3 sequence (P49146 1-381): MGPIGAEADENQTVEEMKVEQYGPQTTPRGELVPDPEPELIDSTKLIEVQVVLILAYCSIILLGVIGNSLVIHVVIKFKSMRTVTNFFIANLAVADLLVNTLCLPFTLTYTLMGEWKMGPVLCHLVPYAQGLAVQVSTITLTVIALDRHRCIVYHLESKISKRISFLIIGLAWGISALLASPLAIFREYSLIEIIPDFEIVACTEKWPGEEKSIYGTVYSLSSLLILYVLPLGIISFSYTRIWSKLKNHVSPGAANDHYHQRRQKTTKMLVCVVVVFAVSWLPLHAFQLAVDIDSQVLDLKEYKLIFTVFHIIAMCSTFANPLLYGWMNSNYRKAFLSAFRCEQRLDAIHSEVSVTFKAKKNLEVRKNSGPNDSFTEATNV
As to the kind of experiment: ^125I-PYY binding to membranes, cloned human Y2 receptor.

In test [4] the target is T4, rat Y4 receptor (Rattus norvegicus, UniProt Q63447).
T4 construct: expressed in transfected cells; host or cells: COS-7 (transient)
As to the kind of experiment: ^125I-PYY binding to membranes, cloned rat Y4 receptor. The note with it: BIBP 3226 at cloned rat Y-type receptors.

For test [5], the system named is human Y5 receptor. Put plainly: Radioligand binding to membranes of cells expressing cloned human Y5 receptor. The conditions noted are these: BIBP 3226 at cloned human Y-type receptors.
Test [6] has as its system canine Y5 receptor. As to the kind of experiment: Porcine ^125I-PYY binding to membranes of COS-7 cells transfected with canine Y5 receptor. The conditions noted are these: COS-7 transient.
Test [7] deals with rat Y5 receptor. Put plainly: Radioimmunoassay of cAMP, 293 cells stably expressing rat Y5 receptor. Format: cell-based. The note with it: concentrations up to 1 μM.
In test [8] the target is T5, rat Y2 receptor (Rattus norvegicus, UniProt Q9ERC0). As to the kind of experiment: Antagonism of NPY- or PP-induced activation of rat Y2 receptors. Format: cell-based. The conditions noted are these: concentrations up to 1 μM.
The target of test [9] is T5, rat Y2 receptor. As to the kind of experiment: ^125I-PYY binding to membranes, cloned rat Y2 receptor. The note with it: BIBP 3226 at cloned rat Y-type receptors. Details: expressed in transfected cells; host or cells: COS-7 (transient).
Test [10] has as its system food intake. As to the kind of experiment: Food intake in food-deprived rats. The note with it: Rattus norvegicus, ip, 2 h; 30 mg/kg i.p., after 24h food deprivation, two hours; read-out: Two-hour food intake of food-deprived rats, percentage of intake compared to control rats, Mean. Format: in vivo, rat.
Experimental: After receipt, the animals are individually housed for the duration of the study and allowed free access to normal food together with tap water. The animals are maintained in a room with a 12 h light/dark cycle (8:00 a.m. to 8:00 p.m. light) at 24° C. and monitored humidity. After placement into individual cages the rats undergo a 4 day equilibration period, during which they are habituated to their new environment and to eating a powdered or pellet diet NAFAG, Gossau, Switzerland).
At the end of the equilibration period, food is removed from the animals for 24 hours starting at 8:00 a.m. At the end of the fasting period compound or vehicle may be administered to the animals orally or by injection intraperitoneally or intravenously. After 10-60 min. food is returned to the animals and their food intake is monitored at various time periods during the following 24 hour period. The food intake of animals treated with test compound may be calculated as a percentage of the food intake of control animals (i.e., animals treated with vehicle). Alternatively, food intake for each group of animals subjected to a particular experimental condition may be expressed as the mean±S.E.M.
Measurements were performed two hours after administration of the test compound.
In test [11] the target is T6, 5HT1F (Homo sapiens, UniProt P30939).
T6 construct: expressed in transfected cells; host or cells: LM(tk-), line L-5-HT1F (ATCC 10957)
Put plainly: Binding at cloned human 5HT1F receptor. The conditions noted are these: read-out: pKi 5HT1F (converted). The text has this:
(§1) The cell line for the 5HT1Dα receptor, designated as Ltk-8-30-84, was deposited on Apr. 17, 1990, and accorded ATCC Accession No. CRL 10421. The cell for the 5HT1Dβ receptor, designated as Ltk-11, was deposited on Apr. 17, 1990, and accorded ATCC Accession No. CRL 10422. The cell line for the 5HT1E receptor, designated 5 HT1E-7, was deposited on Nov. 6, 1991, and accorded ATCC Accession No. CRL 10913. The cell line for the ^5HT1F receptor, designated L-5-HT1F, was deposited on Dec. 27, 1991, and accorded ATCC Accession No. ATCC 10957. Membrane preparations comprising these receptors were prepared as described below, and suspended in 50 mM Tris-HCl buffer (pH 7.4 at 37° C.) containing 10 mM MgCl2, 0.2 mM EDTA, 10 μM pargyline, and 0.1% ascorbate. The binding of compounds was determined in competition binding assays by incubation for 30 minutes at 37° C. in the presence of 5 nM [^3H]serotonin.

Test [12] concerns the target 5HT1E (Homo sapiens, UniProt P28566). As to the kind of experiment: Binding at cloned human 5HT1E receptor. The conditions noted are these: read-out: pKi 5HT1E (converted).
Text: as §1

Test [13] deals with T7, human Y1 receptor (Homo sapiens, UniProt P25929).
T7 construct: expressed in transfected cells; host or cells: COS-7 (transient)
T7 sequence (P25929 1-384): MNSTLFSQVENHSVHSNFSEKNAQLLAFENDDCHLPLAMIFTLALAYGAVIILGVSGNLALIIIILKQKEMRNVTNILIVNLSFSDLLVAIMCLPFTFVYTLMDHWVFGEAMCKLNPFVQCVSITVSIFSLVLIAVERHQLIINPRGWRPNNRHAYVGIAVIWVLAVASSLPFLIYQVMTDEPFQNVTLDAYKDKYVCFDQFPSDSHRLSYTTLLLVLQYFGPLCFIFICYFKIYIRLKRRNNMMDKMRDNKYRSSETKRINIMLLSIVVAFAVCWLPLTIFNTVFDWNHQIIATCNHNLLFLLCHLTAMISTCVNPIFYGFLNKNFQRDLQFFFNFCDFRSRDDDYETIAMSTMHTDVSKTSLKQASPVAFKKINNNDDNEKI
Put plainly: ^125I-PYY binding to membranes, cloned human Y1 receptor.

In test [14] the target is T8, human Y5 receptor (Homo sapiens, UniProt Q15761).
T8 sequence (Q15761 1-445): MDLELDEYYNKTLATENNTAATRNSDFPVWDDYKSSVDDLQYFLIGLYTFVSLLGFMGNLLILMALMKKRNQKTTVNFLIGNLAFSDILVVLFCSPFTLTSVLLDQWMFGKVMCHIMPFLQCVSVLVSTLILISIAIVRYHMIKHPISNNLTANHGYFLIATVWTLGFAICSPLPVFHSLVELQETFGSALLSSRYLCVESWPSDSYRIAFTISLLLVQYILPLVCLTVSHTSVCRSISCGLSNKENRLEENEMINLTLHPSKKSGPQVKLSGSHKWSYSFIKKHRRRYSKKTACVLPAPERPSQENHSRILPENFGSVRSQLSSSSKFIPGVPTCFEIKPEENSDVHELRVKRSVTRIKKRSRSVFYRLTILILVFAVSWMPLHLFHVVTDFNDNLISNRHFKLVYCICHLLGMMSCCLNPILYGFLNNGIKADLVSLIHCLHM
As to the kind of experiment: Radioligand binding to membranes of cells expressing cloned human Y5 receptor. Details: Ki Values, Human Y5; apparent Kd; pKd; Ki Values, Human Y5 (LM(tk-; The isolated clone (CG-19) turned out to contain a full length cDNA; The longest open reading frame encodes a 455 amino acid protein. The conditions noted are these: Table 14; stably transfected LM(tk-) cells.

Test [15] deals with T8, human Y5 receptor. As to the kind of experiment: Radioimmunoassay of cAMP, cells stably expressing human Y5 receptor. Format: cell-based. Details: Ki Values, Human Y5; apparent Kd; pKd; Ki Values, Human Y5 (LM(tk-; The isolated clone (CG-19) turned out to contain a full length cDNA; The longest open reading frame encodes a 455 amino acid protein. The conditions noted are these: block of NPY-induced inhibition of cAMP accumulation. For orientation: Cyclic AMP is a second messenger, typically raised through Gs and lowered through Gi signalling.
Experimental: LM(tk-) cells stably transfected with the human Y5 receptor were routinely converted from an adherent monolayer to a viable suspension. […] The cell suspension was maintained in a shaking incubator at 37° C., 5% CO2 for 24 hours. […] Alternatively, cells may be returned to adherent cell culture in complete DMEM by distribution into 96-well microtiter plates coated with poly-D-lysine (0.01 mg/ml) followed by incubation at 37° C., 5% CO2 for 24 hours.
The maximum inhibition of cAMP accumulation (Emax) and the concentration producing a half-maximal effect (EC50) were determined by nonlinear regression analysis according to a 4 parameter logistic equation.
The ability of the compounds to antagonize the Y-type receptors is reported as the Kb. […] The results shown are representative of at least three independent experiments.

T2 sequence (P50391 whole entry): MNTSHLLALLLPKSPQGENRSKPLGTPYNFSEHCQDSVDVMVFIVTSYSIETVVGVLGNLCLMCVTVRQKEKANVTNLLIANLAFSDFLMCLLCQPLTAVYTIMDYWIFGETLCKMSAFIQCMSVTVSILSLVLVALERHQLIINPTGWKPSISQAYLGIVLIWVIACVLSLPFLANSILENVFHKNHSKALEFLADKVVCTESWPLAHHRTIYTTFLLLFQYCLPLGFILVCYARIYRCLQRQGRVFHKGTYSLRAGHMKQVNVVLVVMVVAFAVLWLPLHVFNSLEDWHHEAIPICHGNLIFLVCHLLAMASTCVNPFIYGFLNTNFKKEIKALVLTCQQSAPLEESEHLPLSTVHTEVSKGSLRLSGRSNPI
T5 sequence (Q9ERC0 1-381): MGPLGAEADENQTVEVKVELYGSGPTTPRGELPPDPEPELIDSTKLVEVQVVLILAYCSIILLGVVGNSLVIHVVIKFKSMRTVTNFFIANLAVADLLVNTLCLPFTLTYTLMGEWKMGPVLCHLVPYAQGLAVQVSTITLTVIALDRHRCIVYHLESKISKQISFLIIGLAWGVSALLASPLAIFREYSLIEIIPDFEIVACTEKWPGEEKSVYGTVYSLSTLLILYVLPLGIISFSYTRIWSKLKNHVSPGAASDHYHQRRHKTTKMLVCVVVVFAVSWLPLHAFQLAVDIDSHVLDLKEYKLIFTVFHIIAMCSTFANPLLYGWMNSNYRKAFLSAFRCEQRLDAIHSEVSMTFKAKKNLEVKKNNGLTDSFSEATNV
T4 sequence (Q63447 whole entry): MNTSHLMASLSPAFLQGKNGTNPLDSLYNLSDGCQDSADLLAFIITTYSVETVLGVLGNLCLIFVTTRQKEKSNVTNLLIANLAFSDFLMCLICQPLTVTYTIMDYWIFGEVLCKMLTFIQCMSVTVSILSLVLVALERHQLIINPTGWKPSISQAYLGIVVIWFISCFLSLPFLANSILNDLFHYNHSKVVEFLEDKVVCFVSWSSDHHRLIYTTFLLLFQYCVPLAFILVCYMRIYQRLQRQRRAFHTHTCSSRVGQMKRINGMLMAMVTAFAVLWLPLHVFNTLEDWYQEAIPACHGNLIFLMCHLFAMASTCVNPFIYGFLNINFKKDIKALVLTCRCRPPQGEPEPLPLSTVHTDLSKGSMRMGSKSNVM
T1 sequence (Q63634 whole entry): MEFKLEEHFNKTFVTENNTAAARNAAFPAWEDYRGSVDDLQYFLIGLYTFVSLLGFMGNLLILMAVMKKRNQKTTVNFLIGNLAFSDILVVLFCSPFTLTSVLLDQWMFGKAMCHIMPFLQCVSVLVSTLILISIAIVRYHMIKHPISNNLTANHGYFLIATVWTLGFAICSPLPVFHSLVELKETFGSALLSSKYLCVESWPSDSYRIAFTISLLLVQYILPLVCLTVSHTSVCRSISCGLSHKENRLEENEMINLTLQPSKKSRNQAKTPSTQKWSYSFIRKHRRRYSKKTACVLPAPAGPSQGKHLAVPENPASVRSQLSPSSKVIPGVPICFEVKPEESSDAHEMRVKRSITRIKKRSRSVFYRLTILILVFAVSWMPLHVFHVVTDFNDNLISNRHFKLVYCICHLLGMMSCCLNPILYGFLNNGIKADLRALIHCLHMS
T6 sequence (P30939 whole entry): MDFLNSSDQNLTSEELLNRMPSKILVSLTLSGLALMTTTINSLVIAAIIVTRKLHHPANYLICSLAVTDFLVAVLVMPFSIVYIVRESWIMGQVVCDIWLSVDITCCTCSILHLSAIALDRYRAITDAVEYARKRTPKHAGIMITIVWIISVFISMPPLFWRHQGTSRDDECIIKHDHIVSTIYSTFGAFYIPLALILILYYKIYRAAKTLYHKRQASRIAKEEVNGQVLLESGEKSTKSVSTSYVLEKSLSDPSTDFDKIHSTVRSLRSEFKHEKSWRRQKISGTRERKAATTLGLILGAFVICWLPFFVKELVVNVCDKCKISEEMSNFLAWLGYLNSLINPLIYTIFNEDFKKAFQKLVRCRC
Chain of 5HT1E (P28566 whole entry): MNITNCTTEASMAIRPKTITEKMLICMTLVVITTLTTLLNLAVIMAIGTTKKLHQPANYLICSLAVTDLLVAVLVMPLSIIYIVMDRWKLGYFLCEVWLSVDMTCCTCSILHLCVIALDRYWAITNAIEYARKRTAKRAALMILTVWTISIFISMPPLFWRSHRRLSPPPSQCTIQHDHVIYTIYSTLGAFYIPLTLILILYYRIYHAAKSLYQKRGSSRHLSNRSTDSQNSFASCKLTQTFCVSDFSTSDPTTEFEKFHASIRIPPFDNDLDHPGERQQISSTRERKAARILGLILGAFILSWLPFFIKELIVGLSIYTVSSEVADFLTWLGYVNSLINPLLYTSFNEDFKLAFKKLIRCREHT

In the case of `NC(N)=NCCC[C@@H](NC(=O)C(c1ccccc1)c1ccccc1)C(=O)NCc1ccc(O)cc1` [BIBP 3226], the Ki in test [1] turned out to be 25 µM; in test [2] (BIBP 3226 at cloned human Y-type receptors, read-out: Ki, human Y4 receptor), 8 µM; in [3] (BIBP 3226 at cloned human Y-type receptors, read-out: Ki, human Y2 receptor), 6.9 µM; in test [4], 420 nM; in test [5] it was 49 µM; in [6], 17 µM. The molecule further showed a Ki in [9] of 66 µM. In test [7], the “antagonism of NPY- or PP-induced activation of rat Y5 receptors” value was “no evidence for antagonism”. Also, the “antagonism of NPY- or PP-induced activation of rat Y2 receptors” value in test [8] was “no evidence for antagonism”.
Regarding `O=S(=O)(NC[C@H]1CC[C@H](CNC(CO)Cc2ccc(Cl)cc2)CC1)c1cccc2ccccc12` (stereo partly drawn) [Compound 25, Naphthalene-1-sulfonic Acid trans-(4-{[2-(4-Chlorophenyl)-1-hydroxymethyl-ethylamino]-methyl}-cyclohexylmethyl)-amide], the Ki is 13.1 µM in test [2] (read-out: Binding Affinity Ki vs. ^125I-PYY, Human Receptor Y4, Table 14, stably transfected LM(tk-) cells); 0.851 µM in test [3] (read-out: Binding Affinity Ki vs. ^125I-PYY, Human Receptor Y2, Table 14, stably transfected 293 cells (compound 1 also COS-7)); no less than 5.01 µM in test [11]; no less than 5.01 µM in [12]. Besides, the response vs control in vivo at 30 mg/kg in [10] came to 32%.
With `NCC(Cc1ccccc1)Nc1cccc2ccccc12` (stereo not shown) [Compound 28], the Ki in test [2] (Table 14, stably transfected LM(tk-) cells) was greater than 100 µM; in test [13], greater than 100 µM; in [3], greater than 75 µM; in test [14], 19 µM. Moreover, the “Y5 receptor antagonist activity” value in test [15] is on record as “Y5 receptor antagonist”.
